Experimental data reported in patent US11445724B2, “Insecticidal compounds” (SYNGENTA PARTICIPATIONS AG, priority 2013, dated 2022).

Columns and labels:
Type in all cases: in vivo
[1] = tested on: Spodoptera littoralis (Egyptian cotton leafworm); assay: Spodoptera littoralis (Egyptian cotton leafworm) mortality, sprayed cotton leaf discs; conditions: foliar, 72 h, 200 ppm spray on cotton leaf discs, L1 larvae, mortality 3 DAT
[2] = tested on: Thrips tabaci (Onion thrips); assay: Thrips tabaci (Onion thrips) mortality, sprayed sunflower leaf discs; conditions: foliar, 168 h, 200 ppm spray on sunflower leaf discs, mixed ages, mortality after 7 days
[3] = tested on: Plutella xylostella (Diamond back moth); assay: Plutella xylostella (Diamond back moth) larval mortality, artificial diet in 24-well MTP; conditions: 144 h, application rate 200 ppm (concentration in well 18 ppm), L2 larvae, larval mortality after 6 days
[4] = tested on: Diabrotica balteata (Corn root worm); assay: Diabrotica balteata (Corn root worm) larval mortality, artificial diet in 24-well MTP; conditions: 120 h, application rate 200 ppm (concentration in well 18 ppm), L2 larvae, larval mortality after 5 days
[5] = tested on: Myzus persicae (Green peach aphid); assay: Myzus persicae (Green peach aphid) mortality, sprayed sunflower leaf discs; conditions: foliar, 144 h, 200 ppm spray on sunflower leaf discs, mixed ages, mortality 6 DAT

Measured: pest or weed control at 200 ppm

CCN(C(=O)c1ccccc1F)c1cccc(C(=O)Nc2c(Cl)cc(C(F)(C(F)(F)F)C(F)(F)F)cc2OC(F)F)c1OC [Compound 145]
not listed: [5]
≥ 80%: all other assays above

CCN(C(=O)c1ccc(C)cc1)c1cccc(C(=O)Nc2c(Br)cc(C(F)(C(F)(F)F)C(F)(F)F)cc2OC(F)F)c1OC [Compound 132]
≥ 80%: all assays above

CCN(C(=O)c1cccc(F)c1F)c1cccc(C(=O)Nc2c(Br)cc(C(F)(C(F)(F)F)C(F)(F)F)cc2OC(F)F)c1OC [Compound 142]
≥ 80%: all assays above

CCN(C(=O)c1cc(C(F)(F)F)ccc1F)c1cccc(C(=O)Nc2c(Br)cc(C(F)(C(F)(F)F)C(F)(F)F)cc2OC(F)F)c1OC [Compound 144]
≥ 80%: [1] | [2] | [3]

O=C(Nc1cccc(C(=O)Nc2c(Cl)cc(C(F)(C(F)(F)F)C(F)(F)F)cc2OC(F)F)c1F)c1cc(Cl)ccc1F [Compound 55]
not listed: [5]
≥ 80%: all other assays above

O=C(Nc1cccc(C(=O)Nc2c(Br)cc(C(F)(C(F)(F)F)C(F)(F)F)cc2OC(F)F)c1F)c1ccccc1C(F)(F)F [Compound 34]
≥ 80%: [1] | [2] | [3]

COc1c(NC(=O)c2ccc(C)cc2)cccc1C(=O)Nc1c(Cl)cc(C(F)(C(F)(F)F)C(F)(F)F)cc1OC(F)F [Compound 82]
≥ 80%: all assays above

COc1c(NC(=O)c2cc(Cl)ccc2F)cccc1C(=O)Nc1c(Cl)cc(C(F)(C(F)(F)F)C(F)(F)F)cc1OC(F)F [Compound 85]
≥ 80%: [1]

CCN(C(=O)c1cc(Cl)ccc1F)c1cccc(C(=O)Nc2c(Br)cc(C(F)(C(F)(F)F)C(F)(F)F)cc2OC(F)F)c1OC [Compound 134]
not listed: [5]
≥ 80%: all other assays above

CCN(C(=O)c1ccccc1C)c1cccc(C(=O)Nc2c(Br)cc(C(F)(C(F)(F)F)C(F)(F)F)cc2OC(F)F)c1OC [Compound 130]
≥ 80%: [1] | [3] | [4]

CCN(C(=O)c1ccc(F)c(C(F)(F)F)c1)c1cccc(C(=O)Nc2c(Br)cc(C(F)(C(F)(F)F)C(F)(F)F)cc2OC(F)F)c1OC [Compound 163]
≥ 80%: [2] | [3] | [4]

CCN(C(=O)c1ccc([N+](=O)[O-])cc1)c1cccc(C(=O)Nc2c(Cl)cc(C(F)(C(F)(F)F)C(F)(F)F)cc2OC(F)F)c1OC [Compound 148]
≥ 80%: [2] | [4]

O=C(Nc1cccc(C(=O)Nc2c(Cl)cc(C(F)(C(F)(F)F)C(F)(F)F)cc2OC(F)F)c1F)c1ccccc1C(F)(F)F [Compound 72]
≥ 80%: [1] | [3]

COc1c(NC(=O)c2cc(C(F)(F)F)ccc2F)cccc1C(=O)Nc1c(Cl)cc(C(F)(C(F)(F)F)C(F)(F)F)cc1OC(F)F [Compound 98]
≥ 80%: [1]

COc1c(NC(=O)c2cc(C(F)(F)F)ccc2F)cccc1C(=O)Nc1c(Br)cc(C(F)(C(F)(F)F)C(F)(F)F)cc1OC(F)F [Compound 73]
≥ 80%: [1] | [5]

CCN(C(=O)c1ccccc1C)c1cccc(C(=O)Nc2c(Cl)cc(C(F)(C(F)(F)F)C(F)(F)F)cc2OC(F)F)c1OC [Compound 146]
≥ 80%: [1] | [3] | [4]

O=C(Nc1cccc(C(=O)Nc2c(Cl)cc(C(F)(C(F)(F)F)C(F)(F)F)cc2OC(F)F)c1F)c1ccccc1OC(F)(F)F [Compound 65]
≥ 80%: [1]

O=C(Nc1cccc(C(=O)Nc2c(Cl)cc(C(F)(C(F)(F)F)C(F)(F)F)cc2OC(F)F)c1F)c1cc(C(F)(F)F)ccc1F [Compound 80]
not listed: [5]
≥ 80%: all other assays above

CCN(C(=O)c1ccccc1C(F)(F)F)c1cccc(C(=O)Nc2c(Cl)cc(C(F)(C(F)(F)F)C(F)(F)F)cc2OC(F)F)c1OC [Compound 157]
not listed: [5]
≥ 80%: all other assays above

COc1ccccc1C(=O)Nc1cccc(C(=O)Nc2c(Br)cc(C(F)(C(F)(F)F)C(F)(F)F)cc2OC(F)F)c1OC [Compound 58]
not listed: [5]
≥ 80%: all other assays above

O=C(Nc1cccc(C(=O)Nc2c(Br)cc(C(F)(C(F)(F)F)C(F)(F)F)cc2OC(F)F)c1F)c1cc(C(F)(F)F)ccc1F [Compound 42]
not listed: [5]
≥ 80%: all other assays above

COc1c(NC(=O)c2ccccc2F)cccc1C(=O)Nc1c(Cl)cc(C(F)(C(F)(F)F)C(F)(F)F)cc1OC(F)F [Compound 75]
≥ 80%: [1] | [2] | [3]

CCN(C(=O)c1ccccc1OC(F)(F)F)c1cccc(C(=O)Nc2c(Br)cc(C(F)(C(F)(F)F)C(F)(F)F)cc2OC(F)F)c1OC [Compound 136]
≥ 80%: [4]

CCN(C(=O)c1ccccc1C(F)(F)F)c1cccc(C(=O)Nc2c(Cl)cc(C(F)(C(F)(F)F)C(F)(F)F)cc2OC(F)F)c1F [Compound 121]
not listed: [5]
≥ 80%: all other assays above

CCN(C(=O)c1ccccc1OC(F)(F)F)c1cccc(C(=O)Nc2c(Cl)cc(C(F)(C(F)(F)F)C(F)(F)F)cc2OC(F)F)c1F [Compound 118]
≥ 80%: [1] | [3] | [4]

COc1c(NC(=O)c2ccccc2OC(F)(F)F)cccc1C(=O)Nc1c(Cl)cc(C(F)(C(F)(F)F)C(F)(F)F)cc1OC(F)F [Compound 90]
not listed: [5]
≥ 80%: all other assays above

COc1ccccc1C(=O)Nc1cccc(C(=O)Nc2c(Cl)cc(C(F)(C(F)(F)F)C(F)(F)F)cc2OC(F)F)c1OC [Compound 91]
≥ 80%: [1] | [3] | [4]

COc1c(NC(=O)c2cccc(F)c2F)cccc1C(=O)Nc1c(Cl)cc(C(F)(C(F)(F)F)C(F)(F)F)cc1OC(F)F [Compound 96]
≥ 80%: [1] | [5] | [3]

COc1c(NC(=O)c2ccc(F)c(C(F)(F)F)c2)cccc1C(=O)Nc1c(Cl)cc(C(F)(C(F)(F)F)C(F)(F)F)cc1OC(F)F [Compound 88]
≥ 80%: [1] | [2] | [3]

CCN(C(=O)c1cc(Cl)ccc1F)c1cccc(C(=O)Nc2c(Cl)cc(C(F)(C(F)(F)F)C(F)(F)F)cc2OC(F)F)c1OC [Compound 151]
not listed: [5]
≥ 80%: all other assays above

CCN(C(=O)c1ccccc1OC(F)(F)F)c1cccc(C(=O)Nc2c(Cl)cc(C(F)(C(F)(F)F)C(F)(F)F)cc2OC(F)F)c1OC [Compound 153]
≥ 80%: [2] | [4]

CCN(C(=O)c1ccc(F)cc1C)c1cccc(C(=O)Nc2c(Cl)cc(C(F)(C(F)(F)F)C(F)(F)F)cc2OC(F)F)c1OC [Compound 150]
not listed: [5]
≥ 80%: all other assays above
